Measurements as given in article PMC9023544, “Ketone-selenoesters as potential anticancer and multidrug resistance modulation agents in 2D and 3D ovarian and breast cancer in vitro models” (Scientific Reports, 2022).
Where a name gives a salt, the structure may show the parent alone. Read-outs that look alike come from different tables or passages of the source.

Key:
[1] = system: HOC (human parental ovarian adenocarcinoma, A2780); test: Cytotoxic activity, 2D, resazurin, 72 h; format: cell-based; settings: for IC50: 2D, 72 h, mean ± SEM, n=3, read-out: HOC IC50; for SI HEK293/HOC: IC50 HEK293 / IC50 HOC
Experimental: (§1) The cytotoxic potential of selenoesters was tested on several cancer cell lines—HOC (human parental ovarian adenocarcinoma, HOC, A2780, Sigma-Aldrich), HOC/ADR (sub-line resistant to Adriamycin, A2780/ADR, Sigma-Aldrich), MCF-7 (human breast adenocarcinoma, ATCC®, HTB-22TM), MCF-7/PAX (resistant sub-line established by gradual adaptation of parental cells to increased concentration of paclitaxel; kindly provided by Division of Cell and Molecular Biology, Third Faculty of Medicine, Charles University, Czech Republic) and on one non-cancerous cell line—HEK293 (human embryonic kidney cell line, Leibniz Institute, DSMZ-German Collection of Microorganisms and Cell Cultures GmbH). All mentioned cell lines were authenticated using short tandem repeat (STR) profiling. Cell lines were cultivated in DMEM medium (10% FBS, 1× antibiotic antimycotic solution), except for HEK293 cell line which was cultivated without antibiotics. In case of the resistant cell lines, the medium was supplemented with a required concentration of cytostatics to maintain resistance (HOC/ADR—100 nM Adriamycin; MCF-7/PAX—300 nM paclitaxel). All cells were cultivated in a CO2 incubator (5% CO2, 37 °C, Thermo Fisher Scientific).
(§2) For the experiment, the cells at passage number 5–20 were seeded at a 1 × 10^5 cells/mL concentration into 96-well plates to 100 µL final volume. The final concentration range of the compounds was 0.63–20 µM. After an incubation of 72 h, the plates were washed 1× with PBS and resazurin solution (0.03 mg/mL in 1× PBS) was added. After 1 h of incubation, the fluorescence signal was recorded (ex./em. 560/590 nm).
(§3) The selectivity index (SI) was determined as the ratio of IC50 value for the non-cancerous cells to IC50 for the cancer cell line. For resistant cell lines, the collateral sensitivity (CS) was calculated as the ratio of IC50 value in sensitive tumour cells to IC50 in the resistant cancer cell line. In both cases, the selectivity is considered as: (1) strongly selective when SI or CS value is above 6, (2) moderately selective when SI or CS is between 3 and 6, (3) slightly selective when SI or CS is between 1 and 3 and (4) non-selective when SI or CS is less than 1[23].

[2] = system: HOC/ADR (sub-line resistant to Adriamycin, A2780/ADR); test: Cytotoxic activity, 2D, resazurin, 72 h; format: cell-based, human; settings: for IC50 / IC10: Homo sapiens, A2780 ADR, 72 h; for IC50: 2D, mean ± SEM, n=3, read-out: HOC/ADR IC50; for IC10: HOC/ADR, concentration that should not decrease viability under 90%, read-out: IC10 of compounds; for SI HEK293/HOC/ADR: IC50 HEK293 / IC50 HOC/ADR; for CS (collateral sensitivity index): IC50 HOC / IC50 HOC/ADR
Experimental: as §1, §2, §3

HOC/ADR = test: Sensitization of MDR cell line to Adriamycin; format: cell-based, human; settings: for Fold change: IC50 of Adriamycin / IC50 of Adriamycin with IC10 dose of compound; for increase of the IC50 of Adriamycin: IC10 dose of compound
Experimental: To determine the sensitization potential of compounds, HOC/ADR and MCF-7/PAX were used. Based on the cytotoxic potential of the compounds against several cancer and non-cancerous cell lines (Table 1), the concentrations of applied compounds were adjusted. IC10 values was considered as the concentrations, which should not decrease the cell viability under 90%. After the addition of compounds, Adriamycin (concentration range 0.1–20 µM) and paclitaxel (concentration range 0.1–10 µM) were added to HOC/ADR and MCF-7/PAX, respectively. The sensitization potential of the compounds was determined as the ratio of the IC50 of cytostatic agent (Adriamycin/paclitaxel) to the IC50 of cytostatic agent affected by the compound in concentration corresponding to the IC10 value. Fold change greater than 1 indicated synergic effect of cytostatic agent and the tested compound.
After that, the plates were washed 1× with PBS and fresh DMEM medium supplemented with tested compounds at final concentration corresponding their IC10 value was added, except for positive control wells. Subsequently, Adriamycin (concentration range 0.1–20 µM) or paclitaxel (concentration range 0.1–10 µM) was added to the appropriate cell line for 72 h. After incubation, the cells were washed 1× with PBS and the resazurin solution (0.03 mg/mL) was added to evaluate the cell viability as described above. IC50 values of cytostatics were calculated for both the control and compounds; a fold change was counted up. When this fold change is higher than 1 indicates a synergism between the tested cytostatic agent and the compound, while a fold change lower than 1 means an antagonism. Fold change=IC50value of cytostatic treated cells only/IC50value of cytostatic treated cells in addition of the compound

[3] = system: MCF-7 (human breast adenocarcinoma); test: Cytotoxic activity, 2D, resazurin, 72 h; format: cell-based; settings: for IC50: Homo sapiens, MCF7, 2D, 72 h, mean ± SEM, n=3, read-out: MCF-7 IC50; for SI HEK293/MCF-7: IC50 HEK293 / IC50 MCF-7
Experimental: as §1, §2, §3

[4] = system: MCF-7/PAX (paclitaxel-resistant sub-line); test: Cytotoxic activity, 2D, resazurin, 72 h; format: cell-based, human; settings: for IC50: Homo sapiens, MCF7, 2D, 72 h, mean ± SEM, n=3, read-out: MCF-7/PAX IC50; for SI HEK293/MC7-7/PAX: IC50 HEK293 / IC50 MCF-7/PAX; for CS (collateral sensitivity index): IC50 MCF-7 / IC50 MCF-7/PAX
Experimental: as §1, §2, §3

[5] = system: HEK293 (human embryonic kidney cell line); test: Cytotoxic activity, non-cancerous cell line, resazurin, 72 h; format: cell-based; settings: Homo sapiens, HEK293; 72 h, mean ± SEM, n=3
Experimental: as §1, §2, §3

Compound | IC50 ([1]; Homo sapiens, A2780, 72 h) [µM] | IC50 [2] [µM] | IC50 (HOC/ADR; Homo sapiens, Adriamycin 0.1–20 µM with IC10 dose of compound, 72 h, ADR row = Adriamycin alone) [µM] | IC50 [1] [µM] | SI HEK293/HOC [1] | IC50 [3] [µM] | SI HEK293/MCF-7 [3] | IC10 [2] [µM] | SI HEK293/HOC/ADR [2] | CS (collateral sensitivity index) [2] | IC50 [4] [µM] | SI HEK293/MC7-7/PAX [4] | CS (collateral sensitivity index) [4] | IC50 [5] [µM] | Fold change (HOC/ADR) | increase of the IC50 of Adriamycin (HOC/ADR) | collateral sensitivity against paclitaxel-resistant breast carcinoma (in words) [4] | collateral sensitivity against HOC/ADR (in words) [2]
COc1cccc2c1C(=O)c1c(O)c3c(c(O)c1C2=O)C[C@@](O)(C(=O)CO)C[C@@H]3O[C@H]1C[C@H](N)[C@H](O)[C@H](C)O1 [ADR, doxorubicin hydrochloride, reference compound] | 0.01 | 2.5 | 2.5 |  |  |  |  |  |  |  |  |  |  |  |  |  |  | 
CC(=O)C[Se]C(=O)c1cccs1 [K1] | < 1 | 2.3 |  | 0.8 | 1.2 ± 0.1 | 1.6 ± 0.1 | 0.6 ± 0.1 | 1.5 | 0.4 ± 0.0 | 0.4 ± 0.0 | 2.2 ± 0.2 | 0.4 ± 0.0 | 0.7 ± 0.1 | 1 ± 0.1 | (1.3 ± 0.1)× |  |  | 
CC(=O)C[Se]C(=O)c1ccccc1F [K2] | < 1 | 2.4 ± 0.1 |  | 0.8 ± 0.1 | 1.6 ± 0.1 | 1.9 ± 0.1 | 0.7 ± 0.1 | 1 | 0.5 ± 0.0 | 0.3 ± 0.0 | 1.9 ± 0.1 | 0.6 ± 0.1 | 1.0 ± 0.1 | 1.2 ± 0.1 | (1.2 ± 0.0)× |  |  | 
CC(=O)C[Se]C(=O)c1cccc(C(F)(F)F)c1 [K5] | 1.1 | 2.2 ± 0.3 |  |  | 1.5 ± 0.0 | 1.6 ± 0.1 | 1.0 ± 0.1 | 1.5 | 0.7 ± 0.1 | 0.5 ± 0.1 | 2.8 ± 0.1 | 0.6 ± 0.0 | 0.6 ± 0.1 | 1.6 | (0.5 ± 0.1)× | almost twofold |  | 
CC(=O)C[Se]C(=O)c1ccc(F)c(Cl)c1 [K6] | < 1 | 2.6 ± 0.1 |  | 0.7 ± 0.1 | 2.7 ± 0.4 | 2.1 ± 0.2 | 0.9 ± 0.2 | 1.3 | 0.8 ± 0.1 | 0.3 ± 0.0 | 2.3 ± 0.3 | 0.9 ± 0.1 | 0.9 ± 0.1 | 2 ± 0.1 | (1.1 ± 0.1)× |  |  | 
CC(=O)C[Se]C(=O)c1cc(F)c(F)cc1F [K8] | 2.1 ± 0.1 | 2.7 |  |  | 0.9 ± 0.1 | 2.6 ± 0.4 | 0.8 ± 0.1 | 3 | 0.7 ± 0.0 | 0.8 ± 0.1 | 2 ± 0.1 | 1.0 ± 0.2 | 1.3 ± 0.3 | 2 ± 0.2 | (1.1 ± 0.1)× |  | slight collateral sensitivity | 
N#CC[Se]C(=O)c1cccs1 [N1] | 2.7 ± 0.3 | 4.2 ± 0.2 |  |  | 2.2 ± 0.4 | 3.1 ± 0.2 | 2.0 ± 0.3 | 2.5 | 1.4 ± 0.2 | 0.7 ± 0.1 | 2.5 | 2.4 ± 0.4 | 1.2 ± 0.2 | 6 ± 0.6 | (0.3 ± 0.1)× | 3.5 fold | slight collateral sensitivity | 
N#CC[Se]C(=O)c1cccc(F)c1 [N2] | 7.1 ± 0.2 | 4.7 ± 0.1 |  |  | 1.1 ± 0.1 | 2.6 ± 0.1 | 3.0 ± 0.2 | 3 | 1.7 ± 0.1 | 1.5 ± 0.1 | 2.5 ± 0.3 | 3.1 ± 0.2 | 1.0 ± 0.1 | 7.8 ± 0.2 | (1.2 ± 0.1)× |  |  | slight collateral sensitivity
N#CC[Se]C(=O)c1ccc(Br)cc1 [N3] | 6.5 ± 0.3 | 5.2 ± 0.1 |  |  | 1.2 ± 0.1 | 2.3 ± 0.5 | 3.5 ± 0.9 | 3.1 | 1.5 ± 0.1 | 1.3 ± 0.1 | 2.7 ± 0.2 | 3.0 ± 0.6 | 0.9 ± 0.3 | 8 ± 0.3 | (1.3 ± 0.0)× |  |  | slight collateral sensitivity
N#CC[Se]C(=O)c1ccccc1C(F)(F)F [N4] | 2.4 ± 0.1 | 3.7 ± 0.2 |  |  | 2.2 ± 0.2 | 2.1 ± 0.1 | 2.5 ± 0.2 | 2.4 | 1.4 ± 0.1 | 0.6 ± 0.1 | 2.4 ± 0.2 | 2.1 ± 0.2 | 0.9 ± 0.1 | 5.2 ± 0.3 | (1.3 ± 0.1)× |  |  | 
N#CC[Se]C(=O)c1cccc(C(F)(F)F)c1 [N5] | 2.3 ± 0.1 | 4.5 ± 0.2 |  |  | 2.7 ± 0.2 | 2.5 ± 0.2 | 2.4 ± 0.3 | 2.5 | 1.3 ± 0.1 | 0.5 ± 0.1 | 2.7 ± 0.2 | 2.3 ± 0.2 | 0.9 ± 0.2 | 6 ± 0.2 | (1.2 ± 0.2)× |  |  | 
N#CC[Se]C(=O)c1ccc(F)c(Cl)c1 [N6] | 2.4 ± 0.2 | 3.6 |  |  | 2.1 ± 0.2 | 1.7 | 2.9 ± 0.1 | 2.6 | 1.4 ± 0.0 | 0.7 ± 0.1 | 1.9 ± 0.1 | 2.6 ± 0.1 | 0.9 ± 0.0 | 4.9 ± 0.1 | (0.4 ± 0.0)× | almost threefold |  | 
CC(=O)O[C@H]1C(=O)[C@@]2(C)[C@H]([C@H](OC(=O)c3ccccc3)[C@]3(O)C[C@H](OC(=O)[C@H](O)[C@@H](NC(=O)c4ccccc4)c4ccccc4)C(C)=C1C3(C)C)[C@]1(OC(C)=O)CO[C@@H]1C[C@@H]2O [PAX, paclitaxel, reference compound] |  |  |  |  |  | 0.03 |  |  |  |  | 1.5 |  |  |  |  |  |  | 
